Series [1] in a line: Acute toxicity in mice. As to conditions: mouse, in vivo, observation time 14 days. Here is the method:
The acute toxicity of the compounds in question was determined in mice (observation time: 14 days) after oral or intravenous application. The LD50 was calculated from the percentage of animals which died after different doses within the observation time (see J. Pharmacol. exp. Therap. 96, 99 (1949)): […]

Series [2] concerns heart rate of guinea pigs under urethane anesthesia. Description: Activity on heart frequency of anesthetized guinea pigs. The class given is in vivo, guinea pig. The settings on record: ECG. As to the method:
1. Activity on heart frequency of anesthetized guinea pigs:
The heart rate of guinea pigs under urethane anesthesia was registered by an electrocardiogram. The test compound was administered intravenously at increasing dosage increments between 0.5 and 20 mg/kg.

Series [3] deals with isolated, spontaneously beating auricles of guinea pigs. Description: Effect on heart rate in the isolated auricle of the guinea pig. Type of series: cell-based. As to conditions: Cavia porcellus; 10^-5 g/ml in organ bath, tyrode solution, 30° C., average of 5 auricles; read-out: Change in heart rate in %. Here is the method:
2. Effect on heart rate in the isolated auricle of the guinea pig:
The effect on isolated, spontaneously beating auricles of guinea pigs of male and female sex having a body weight between 300 and 400 gm were investigated in an organ bath filled with tyrode solution. The nutritive solution was infused with carbogen (95% of O2 and 5% of CO2) and maintained at 30° C. The contractions were registered isometrically with a Statham-Force-transducer on a Grass-polygraph. The test compound was added to the organ bath so that the final concentration was 10^-^5 g/ml in each case. 5 auricles were used for each solution.
The following table gives the percentage decrease in the heart rate from an average of 5 auricles at a test compound concentration of 10^-^5 g/ml).

Structures can show the parent of a compound that is named as a salt.

For the compound `COc1ccc(CCN(C)CCCN2Cc3cc(OC)c(OC)cc3C2=O)cc1OC` [A, 5,6-Dimethoxy-2N-(3-[α-(3,4-dimethoxy)-phenylethyl-methylamino]-propyl)-phthalimidine hydrochloride], the LD50 (in general, the dose expected to kill half of the subjects tested) at 336 h in series [1] (iv) worked out at 98 mg/kg; in series [1] (po), 1570 mg/kg. Further, the “Percentage change in heart rate” value in series [2] (0.5 mg/kg i.v.) was -23.5%; in series [2] (1.0 mg/kg i.v.) it was -36.1%; in series [2] (2.0 mg/kg i.v.) it was -47.2%; in series [2] (5.0 mg/kg i.v.), -51.6%; in series [2] (10.0 mg/kg i.v.) it was -59.1%; in series [2] (20.0 mg/kg i.v.), -67.2%. In addition, the inhibition at 10 µg/mL in series [3] came out at 52%.

In the case of `COc1ccc(CCN(C)CCCN2Cc3cc(OC)c(OC)cc3S2(=O)=O)cc1OC` [B, 5,6-Dimethoxy-2-(3-[α-(3,4-dimethoxy)-phenylethyl-methylamino]-propyl)-1,2-benzisothiazoline-1,1-dioxide hydrochloride], the LD50 at 336 h in series [1] (iv) is 100 mg/kg. For the same compound, the “Percentage change in heart rate” value is listed as -9.8% in series [2] (0.5 mg/kg i.v.); -20.0% in series [2] (1.0 mg/kg i.v.); -27.4% in series [2] (2.0 mg/kg i.v.); -37.6% in series [2] (5.0 mg/kg i.v.); -46.9% in series [2] (10.0 mg/kg i.v.); -53.9% in series [2] (20.0 mg/kg i.v.). The inhibition at 10 µg/mL in series [3] was found to be 60%.

On to `COc1cc2c(cc1OC)C(=O)N(CCCN(C)CCc1ccc3c(c1)OCO3)C2` [D, 5,6-Dimethoxy-2N-(3-[α-(3,4-methylenedioxy)-phenylethylmethylamino]-propyl)-phthalimidine hydrochloride], for which the inhibition at 10 µg/mL in series [3] is 51%.

With `CN(CCCN1Cc2cc3c(cc2C1=O)OCCO3)CCc1ccc2c(c1)OCO2` [E, 5,6-Ethylenedioxy-2N-(3-[α-(3,4-methylenedioxy)-phenylethyl-methylamino]-propyl)-phthalimidine hydrochloride], the inhibition at 10 µg/mL in series [3] came to 48%.
